Where no end group is shown, it is not given here.

What all share (assay type): biochemical, rat
The test system of test [1] is somatostatin convertase. Description: Conversion of iodine-125-labeled peptide I by brain extracts, specific activity (% of peptide II generated). The following applies: molecular sieve fraction, peptide I (20,000 cpm), 2 hours, % of starting materials. The protocol: (§1) Male Wistar rats (100-120 g) were sacrificed by quick decapitation and the cerebral cortex was removed immediately. The fresh dissected tissue was homogenized in a Potter Elvehjem apparatus in a buffer solution of phosphate (pH 7.4) at a concentration of 50 mM and potassium chloride at a concentration of 200 mM (5 ml of buffer per cortex).
(§2) The extract was then centrifuged at 3000×g for 15 minutes and the supernatant was filtered on a Sephadex G-150 column in 0.25M Tris-HCl (pH 7).
(§3) The proteolytic activities were tested in the following way. The peptide I labeled with iodine 125 (20,000 cpm), dissolved in 10 μl of 250 mM Tris-HCl (pH 7), was incubated at 37° C. with an aliquot either of crude extract of rat cerebral cortex or of fractions derived from gel filtration or derived from ion exchange chromatography (final volume of 300 μl in 0.25M Tris-HCl (pH 7)).
(§4) 50 μl samples of the mixture were taken at different times during the reaction and the reaction was stopped by the addition of 600 μl of CM-52 resin in 30 mM ammonium acetate (pH 6) (1:10, vol./vol.). The mixture was then centrifuged at 10,000×g for 30 seconds on a Beckman microcentrifuge. […] After the second washing by elution at each of its saline concentrations, the iodinated products retained on the resin were counted.
(§5) The results were calculated as follows: [formula] where the specific activity represents the percentage of peptides II generated, the undesirable activity represents the percentage of Asn-^125 I-Tyr(NH2) generated, t is the total cpm in 50 μl of the mixture, x1 is the cpm found after washing with the 30 mM ammonium acetate, x2 is the cpm found after washing with the 100 mM ammonium acetate, and y1 and y2 are the cpm values found respectively after the 30 mM and 100 mM washings of the resin with the peptide I by itself.
(§6) The extracts were obtained from three regions of the brain and were fractionated by filtration on a molecular sieve. A 50 μl aliquot corresponding to an activity peak was incubated with the peptide I (20,000 cpm) for 2 hours and the products were analyzed by ion exchange.

The subject of the next test is undesirable activity. Description: Conversion of iodine-125-labeled peptide I by brain extracts, undesirable activity (% of Asn-^125 I-Tyr(NH2) generated). The following applies: molecular sieve fraction, peptide I (20,000 cpm), 2 hours, % of starting materials. Here is the method: as §1, §2, §3, §4, §5, §6
Test [2] concerns somatostatin convertase. Description: Competition of peptides with iodinated peptide I in the enzymatic conversion by somatostatin convertase. The following applies: 1 μl of each peptide or 2 μg of somatostatin 28; ^125 I peptide I (30,000 cpm), pH 7, 37° C., 2 hours; 0% = maximum conversion of peptide I to peptide II. Here is the method: The ability of several analogous peptides to compete with the peptide I in the enzymatic conversion was evaluated by means of competition experiments. The results given in the table which follows indicate that either the peptide of 28 AA (S-28) or the noniodinated substrate of II AA (deiodinated peptide I) competed effectively (75% and 85% respectively) with the iodinated peptide I. It is interesting to observe that simple replacement of Lys with Arg in the dibasic doublet (cleavage site) produced a peptide III, which competed with the iodinated substrate (peptide I) with an efficacy of only 30%.
The enzyme prepared from the Sephadex G150 column was incubated in a
mixture containing either 1 μl of each of the peptides described above
or 2 μg of somatostatin 28 and ^125 IPeptide I (30,000 cpm) in a
buffer solution of TrisHCl (pH 7) at 37° C. for 2 hours. 0%
inhibition corresponds to a maximum conversion of the peptide I to the […]

For “Ala-Gly-Ala-Lys-Asn-Tyr(NH2)* [Peptide II]”, the “% of products generated, Peptide II labeled with 125I” value was found to be 7% with somatostatin convertase [1] (Hypothalamus extract), 18% in the test on somatostatin convertase [1] (Neocortex extract) and 20% in the test with somatostatin convertase [1] (Pituitary gland extract).
Take Asn-^125 I-Tyr(NH2): the figures for the “% of products generated, Asn-^125 I-Tyr(NH2)” value in the test on undesirable activity (Hypothalamus extract), with undesirable activity (Neocortex extract) and in the test on undesirable activity (Pituitary gland extract) were 90%, 40% and 37%, respectively.
As to PRERKAGAKNY-NH2 [De^125 IPeptide I], the “% inhibition of the conversion activity (competition with iodinated peptide I)” value in the test with somatostatin convertase [2] worked out at 85%.
The same measure, in the same setting: the figure for “Somatostatin 28: direct precursor of somato 14, a peptide consisting of 28 AA [reference compound]” is 75%.

For the origin of these results see patent publication US4892813A, “Method for the determination of the enzymatic activity of convertase” (Centre National de la Recherche Scientifique, priority 1987, dated 1990).
